16 compounds from ChEMBL document CHEMBL1145005 (J Med Chem, 2003) can be followed below.

In data set [1] the target is Aldo-keto reductase family 1 member B1 (Homo sapiens, UniProt P15121). Kind of data set: Inhibition of human recombinant Aldose reductase […].
In data set [2] the test system is Rattus norvegicus. Kind of data set: Aldose reductase inhibition activity in vivo by normalizing the elevated nerve fructose levels in sciatic nerve of acutely diabetic rat at 20 mg/kg. It counts as functional.
Data set [3] deals with Rattus norvegicus. The experiment in a line: Aldose reductase inhibition activity in vivo by normalizing the elevated nerve sorbitol levels in sciatic nerve of acutely diabetic rat at 20 mg/kg. It counts as functional.
Data set [4] has as its system Rattus norvegicus. The experiment in a line: Aldose reductase inhibition activity in vivo by normalizing the elevated nerve sorbitol levels in sciatic nerve of acutely diabetic rat at 300 mg/kg. The class given is functional.
Data set [5] deals with Rattus norvegicus. Kind of data set: Aldose reductase inhibition activity in vivo by normalizing the elevated nerve fructose levels in sciatic nerve of acutely diabetic rat at 300 mg/kg. It counts as functional.
A short description of data set [6]: pKa value of compound was determined. The class given is physicochemical.
Data set [7] can be described thus: Dissociation constant was determined. The class given is physicochemical.
Data set [8] has as its system Rattus norvegicus. Kind of data set: Aldose reductase inhibition activity in vivo by normalizing the elevated nerve fructose levels in sciatic nerve of acutely diabetic rat at 10 mg/kg. It counts as functional.
For data set [9], the species on record is Rattus norvegicus. The experiment in a line: Effective dose to inhibit aldose reductase activity by normalizing the elevated nerve fructose levels in sciatic nerve of chronically diabetic rat.
The subject of data set [10] is Rattus norvegicus. The experiment in a line: Aldose reductase inhibition activity in vivo by normalizing the elevated nerve sorbitol levels in sciatic nerve of acutely diabetic rat at 10 mg/kg. The class given is functional.
The species entered for data set [11] is Rattus norvegicus. The experiment in a line: Effective dose to inhibit aldose reductase activity by normalizing the elevated nerve sorbitol levels in sciatic nerve of chronically diabetic rat.
The subject of data set [12] is Rattus norvegicus. The experiment in a line: Aldose reductase inhibition activity in vivo by normalizing the elevated lens sorbitol levels in sciatic nerve of acutely diabetic rat at 20 mg/kg. The settings on record: read-out: Inhibition.
Data set [13] relates to Rattus norvegicus. The experiment in a line: Effective dose to inhibit aldose reductase activity by normalizing the elevated lens sorbitol levels in sciatic nerve of chronically diabetic rat orally. It counts as functional. The settings on record: po.
Data set [14] can be described thus: Log P / Log D value was determined. It counts as physicochemical. Particulars: octanol/water.
Data set [15] is described as follows: Plasma t1/2 of compound was determined in diabetic rat. It counts as ADME, organism-based.
Data set [16] in a line: Partition coefficient (logP). The class given is physicochemical. The settings on record: octanol/water.
The test system of data set [17] is Rattus norvegicus. The experiment in a line: Effective dose to inhibit aldose reductase activity by normalizing the elevated lens fructose levels in sciatic nerve of chronically diabetic rat orally. The settings on record: po. It counts as functional.
Data set [18] is described as follows: Oral bioavailability in rat. It counts as ADME, organism-based. The settings on record: in vivo, read-out: Bioavailability_oral.
A short description of data set [19]: Maximum concentration of drug in plasma was determined at 2 mg/kg orally. The class given is ADME, organism-based. The arrangement: dose 2 mg/kg, route oral. Particulars: in vivo, po.
Data set [20] can be described thus: Log D value at pH 7.4. Particulars: buffer. The class given is physicochemical.

Each structure is given as a SMILES string. Where only a bound is given, the exact number is not on record here.

By IC50 is commonly meant the concentration at which inhibition is half-maximal. For the compound `O=c1ccc(S(=O)(=O)c2ccccc2Cl)n[nH]1`, the IC50 in data set [1] stood at 170 nM. Besides, the figures for the inhibition in vivo at 20 mg/kg in data set [2] and in data set [3] were 68% and 96%, respectively.
The term pKa denotes the negative logarithm of the acid dissociation constant. Low readings indicate a group that gives up its proton readily, high ones a group that holds its proton tightly. `O=S(=O)(c1ccccc1)c1ccc(O)nn1`: the IC50 in [1] was found to be 600 nM. Also, the inhibition in vivo at 300 mg/kg came to 95% in data set [4] and 89% in data set [5]. For the same compound, in data set [6], the pKa came out at 7.1.
On to `COc1ccc(S(=O)(=O)c2ccc(=O)[nH]n2)cc1`, for which the half-inhibitory concentration (IC50) in data set [1] stood at 2000 nM.
On to `O=c1ccc(S(=O)(=O)c2cc3ccccc3o2)n[nH]1`, for which the IC50 in data set [1] was 150 nM.
In the case of `O=S(=O)(c1ccc(O)nn1)c1nc2ccccc2s1`, the IC50 in [1] was 450 nM.
In the case of `O=C1NC(=O)[C@@]2(CCOc3ccc(F)cc32)N1` [SORBINIL], the pKa in data set [7] was more than 8.
Turning to `O=c1ccc(S(=O)(=O)c2ccc(Br)cc2F)n[nH]1`, in data set [1], the IC50 is 140 nM.
As to `O=c1ccc(S(=O)(=O)c2ccc(Cl)cc2Cl)n[nH]1`, the IC50 in [1] is 190 nM. Further, the inhibition in vivo at 10 mg/kg in [8] worked out at 73%; in [10], 95%. In addition, the ED90 in [9] is 20 mg/kg; in data set [11], 5 mg/kg.
`O=c1ccc(S(=O)(=O)c2ccc(F)cc2Cl)n[nH]1`: in data set [1], the IC50 came to 280 nM. Further, the inhibition in vivo at 10 mg/kg in data set [8] came out at 46%; in data set [10] it was 91%.
As for `O=c1ccc(S(=O)(=O)c2cc3ccccc3[nH]2)n[nH]1`, in data set [1], the IC50 is 5000 nM.
Still for that read-out and setting: with `O=c1ccc(S(=O)(=O)c2ccccc2Br)n[nH]1` the figure was 210 nM.
Regarding `O=C(O)Cc1nn(Cc2nc3cc(C(F)(F)F)ccc3s2)c(=O)c2ccccc12` [ZOPOLRESTAT], the ED90 turned out to be 40 mg/kg in data set [9] and 10 mg/kg in [11]. Further, the inhibition in vivo at 20 mg/kg in data set [12] stood at 41%. In data set [6], this compound returned a pKa of 3.
Consider `O=S(=O)(c1ccc(O)nn1)c1ccccc1-c1ccccc1`, for which the IC50 in [1] amounted to 2200 nM.
Regarding `O=c1ccc(S(=O)(=O)c2cc3ccccc3s2)n[nH]1`, the IC50 in data set [1] was 150 nM.
Broadly, the half-life is the time needed for the level to fall by half in the phase considered. A low value points to fast loss. A word on the logP: it is a log measure of how a compound divides between an organic and an aqueous phase. The Cmax is the highest concentration seen after dosing. Broadly, the logD is lipophilicity at a set pH, counting ionised and neutral species. A low value points to lower lipophilicity. `Cc1c(S(=O)(=O)c2ccc(=O)[nH]n2)oc2ccc(Cl)cc12`: the IC50 in data set [1] was 0.84 nM. Besides, the figures for the ED90 in [13] and in [17] were 0.8 mg/kg and 3 mg/kg, respectively. Also, in data set [14], the “Log P/Log D” value was found to be 0.81. Besides, the half-life in data set [15] was 26 h. This compound yielded a logP in [16] of 3.05. Besides, the bioavailability in data set [18] was 98%. The Cmax in data set [19] came to 9000 ng/mL. In data set [20], the logD turned out to be 2.46.
On to `Cc1ccc(S(=O)(=O)c2ccc(O)nn2)cc1`, for which, in data set [1], the IC50 was 1900 nM.
